Results on one compound are retold here after ChEMBL document CHEMBL4177594, “Design, synthesis, and evaluation of salicyladimine derivatives as multitarget-directed ligands against Alzheimer's disease” (Bioorg Med Chem, 2017).

In series [1] the test system is PC-12. Briefly: Neuroprotective activity against H2O2-induced apoptosis in rat PC12 cells assessed as necrosis cells level at 25 uM after 24 hrs by Annexin V/FITC/propidium iodide staining-based flow cytometry (reference value: 0.1%). The format is functional. In general terms: A flow cytometer gives signals particle by particle.
The test system of series [2] is PC-12. Briefly: Neuroprotective activity against H2O2-induced apoptosis in rat PC12 cells assessed as viable cells level at 50 uM after 24 hrs by Annexin V/FITC/propidium iodide staining-based flow cytometry (reference value: 96.2%). The format is functional.
For a further series, the system named is BV-2. Briefly: Neuroprotective activity against LPS-induced inflammation in mouse BV2 cells assessed as inhibition of LPS-induced NO production at 10 to 25 uM after 24 hrs in presence of LPS by Griess reaction based assay relative to resveratrol. The format is functional, cell-based. Background: Griess reagent forms a coloured azo dye with nitrite.
Series [3] concerns the target T1, Amine oxidase [flavin-containing] A (Homo sapiens, UniProt P21397).
T1 sequence (P21397 whole entry): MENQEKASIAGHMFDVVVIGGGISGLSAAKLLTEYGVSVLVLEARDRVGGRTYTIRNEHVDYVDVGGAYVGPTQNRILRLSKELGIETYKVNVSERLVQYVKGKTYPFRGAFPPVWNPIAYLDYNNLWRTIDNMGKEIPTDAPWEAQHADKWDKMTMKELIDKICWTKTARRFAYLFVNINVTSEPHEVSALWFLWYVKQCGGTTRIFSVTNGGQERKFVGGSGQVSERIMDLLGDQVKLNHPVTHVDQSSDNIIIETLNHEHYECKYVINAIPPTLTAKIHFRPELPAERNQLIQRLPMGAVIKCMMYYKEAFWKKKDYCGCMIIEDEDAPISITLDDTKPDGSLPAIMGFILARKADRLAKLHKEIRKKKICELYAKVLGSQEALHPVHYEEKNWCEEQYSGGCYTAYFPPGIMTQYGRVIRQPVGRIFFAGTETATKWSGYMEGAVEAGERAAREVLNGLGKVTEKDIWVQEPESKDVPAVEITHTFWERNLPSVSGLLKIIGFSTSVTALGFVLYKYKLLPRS
Briefly: Inhibition of human MAO-A at 200 uM using p-tyramine as substrate preincubated for 15 mins followed by substrate addition measured after 20 mins by fluorescence-based Amplex Red MAO assay.

The subject of series [4] is PC-12. Description: Neuroprotective activity against 6-OHDA-induced toxicity in rat PC12 cells assessed as increase in cell viability at 10 to 25 uM pretreated for 24 hrs followed by 6-OHDA challenge measured after 24 hrs by MTT assay. The format is functional. A general note: Tetrazolium dyes change colour on reduction, which living cells bring about.
In series [5] the test system is PC-12. Briefly: Neuroprotective activity against H2O2-induced apoptosis in rat PC12 cells assessed as apoptotic cells at 6.25 uM after 24 hrs by Annexin V/FITC/propidium iodide staining-based flow cytometry (reference value: 52.3%). In kind it is functional.

Activity calls are given as the source filed them. The calls are words filed in the database; no cut-off is given here.

On to `Oc1ccc(/C=N/c2ccc(OCc3ccccc3)cc2)c(O)c1O`, for which the Activity in the series with PC-12 [1] is 1.1%; with PC-12 [2] it was 91.1%; with PC-12 [4], 65.9 - 75.4%; in the series with PC-12 [5], 38.6%. For the same compound, in the series on BV-2, the outcome was Active. The “inhibition (INH)” value in series [3] is reported as “Not Active”.
